{"source": "patent US6858428B2", "about": "“Human and animal cell culture medium containing antithrombin III for suppressing cell death” (Agency of Industrial Science and Technology, priority 1999, dated 2005)", "tested_on": "hepatoma cell line HepG2", "test": "Survival of hepatoma cell line HepG2 in serum-free culture (viable cell count after 3 days)", "type": "cell-based", "settings": "for Survival rate: HepG2, DMEM without fetal bovine serum; for Effect in controlling cell death (in words): HepG2, serum-free medium, concentration not given", "description": "Two mL cell suspension of hepatoma cell line HepG2 dispersed in trypsin (5×10^5 cells) were inoculated on six multi-well plates and pre-culture by using Dulbecco's modified Eagle medium (DMEM) containing 5% fetal bovine serum, 1.6 g/L sodium hydrogencarbonate, 0.584 g/L L-glutamine, and 0.08 g/L kanamycin sulfate at 37° C. in a 5% CO2 gas phase. […] The viable cell count was assayed after 3 days of culture.\n(§1) The hepatoma cell line HepG2 was pre-cultured in the same manner as in Example 1. After 1 day, the broth was recovered, the cell surfaces were washed with serum-free medium, and the culture was continued for another 3 days with the addition of medium containing 5%, 0% fetal bovine serum, or 2 mL of fresh medium comprising antithrombin III added in concentrations ranging from 1 to 25 μg/mL to media containing no fetal bovine serum (0%). The viable cell count was assayed after 3 days of culture.\nas §1, with “III or any of-various synthetic protease inhibitors given in Table 4” for “III”, “added” for “added in concentrations ranging from 1 to 25 μg/mL”"}
{"molecule": "PDGF-AA: growth factor reported as survival factor", "values": [{"measurement": "Survival rate", "setting": "additive 50 ng/ml", "result": 54.0, "unit": "%"}]}
{"molecule": "Insulin: hormone reported as survival factor", "values": [{"measurement": "Survival rate", "setting": "additive 0.1 μM", "result": 53.0, "unit": "%"}]}
{"molecule": "aFGF: growth factor reported as survival factor", "values": [{"measurement": "Survival rate", "setting": "additive 10 ng/ml", "result": 59.6, "unit": "%"}]}
{"molecule": "α 1-antitrypsin: typical serum protein used for comparison", "values": [{"measurement": "Survival rate", "setting": "additive 150 μg/ml", "result": 72.7, "unit": "%"}, {"measurement": "Effect in controlling cell death (in words)", "result": "virtually no effect in controlling cell death"}]}
{"molecule": "N=C(N)c1ccc(CS(=O)(=O)F)cc1", "note": "[APMSF, reference compound]", "values": [{"measurement": "Survival rate", "setting": "additive 40 μg/ml", "result": 74.0, "unit": "%"}]}
{"molecule": "NCCc1ccc(S(=O)(=O)F)cc1", "note": "[AEBSF, reference compound]", "values": [{"measurement": "Survival rate", "setting": "additive 50 μg/ml", "result": 92.2, "unit": "%"}, {"measurement": "Effect in controlling cell death (in words)", "result": "effective in controlling cell death"}]}
{"molecule": "CC(=O)N[C@@H](CC(C)C)C(=O)N[C@@H](CC(C)C)C(=O)N[C@H](C=O)CCCNC(=N)N", "note": "[Leupeptin, reference compound]", "values": [{"measurement": "Survival rate", "setting": "additive 0.5 μg/ml", "result": 65.5, "unit": "%"}]}
{"molecule": "Cc1ccc(S(=O)(=O)N[C@@H](CCCCN)C(=O)CCl)cc1", "note": "[TLCK, reference compound]", "values": [{"measurement": "Survival rate", "setting": "additive 50 μg/ml", "result": 89.3, "unit": "%"}, {"measurement": "Effect in controlling cell death (in words)", "result": "effective in controlling cell death"}]}
{"molecule": "Transferrin: typical serum protein used for comparison", "values": [{"measurement": "Survival rate", "setting": "additive 150 μg/ml", "result": 62.8, "unit": "%"}, {"measurement": "Effect in controlling cell death (in words)", "result": "virtually no effect in controlling cell death"}]}
{"molecule": "IGF-1: growth factor reported as survival factor", "values": [{"measurement": "Survival rate", "setting": "additive 50 ng/ml", "result": 45.3, "unit": "%"}]}
{"molecule": "Orosomucoide: typical serum protein used for comparison", "values": [{"measurement": "Survival rate", "setting": "additive 48.8 μg/ml", "result": 61.5, "unit": "%"}, {"measurement": "Effect in controlling cell death (in words)", "result": "virtually no effect in controlling cell death"}]}
{"molecule": "bFGF: growth factor reported as survival factor", "values": [{"measurement": "Survival rate", "setting": "additive 10 ng/ml", "result": 55.2, "unit": "%"}]}
